Data taken from patent US8309685B2 (Celgene Avilomics Research, Inc., priority 2007, dated 2012).

Legend:
[1] = target: T1, wild type HCV NS3/4A 1b protease enzyme (Hepatitis C virus genotype 1b, UniProt P26663); assay: HCV Protease FRET Assay (IC50_APP), wild type; assay type: biochemical; conditions: read-out: IC50_APP, WT; apparent IC50, wild type NS3/4A 1b
T1 construct: 10× stocks of NS3/4A protease enzyme from Bioenza (Mountain View, Calif.); purchased Bioenza (Mountain View, Calif.)
Description: (§1) HCV Protease FRET Assay for WT and Mutated NS3/4A 1b Enzymes (IC50—APP).
(§2) The following protocol was used to generate “apparent” IC50 (IC50—APP) values as depicted in Table 6, below. […] 5 μL of each enzyme were added to Corning (#3575) 384-well, black, microtiter plates (Corning, N.Y.) after spotting a 0.5 μL volume of 50% DMSO and serially diluted compounds prepared in 50% DMSO. Protease reactions were immediately started after enzyme addition with the addition of 45 μL of the FRET substrate and monitored for 60-90 minutes at λex485/λem520 in a Synergy^4 plate reader from BioTek (Winooski, Vt.). At the conclusion of each assay, progress curves from each well were examined for linear reaction kinetics and fit statistics (R^2, 95% confidence intervals, absolute sum of squares).
(§3) The compound numbers correspond to the compound numbers in Table 3. […] ;

[2] = target: T2, D168A mutant of the HCV NS3/4A 1b protease enzyme (Hepatitis C virus genotype 1b, UniProt P26663, D1194A); assay: HCV Protease FRET Assay (IC50_APP), D168A mutant; assay type: biochemical; conditions: apparent IC50, D168A mutant; read-out: IC50_APP, HCV D168A
T2 construct: 10× stocks of NS3/4A protease enzyme from Bioenza (Mountain View, Calif.); purchased Bioenza (Mountain View, Calif.)
Description: as §1, §2, §3

[3] = tested on: HCV RNA replicon in cell line ET (luc-ubi-neo/ET), human Huh7 hepatoma; assay: Method A: HCV RNA replicon antiviral assay (luciferase, ET cell line); assay type: cell-based, Hepatitis C virus; conditions: Hepatitis C virus, Huh-7, assay described in Example 22; for IC50: read-out: Replicon (IC50)
Description: The compounds were assayed to evaluate the antiviral activity and cytotoxicity of compounds in vitro using HCV RNA replicons. This assay used the cell line ET (luc-ubi-neo/ET), which is a human Huh7 hepatoma cell line that contains an HCV RNA replicon with a stable luciferase (Luc) reporter and three cell culture-adaptive mutations. […]
The ET cell line was grown in Dulbecco's modified essential media (DMEM), 10% fetal bovine serum (FBS), 1% penicillin-streptomycin (pen-strep), 1% glutamine, 250 μg/ml G418 in a 5% CO2 incubator at 37° C. All cell culture reagents were obtained from Mediatech (Manassas, Va.). Cells were trypsinized (1% trypsin:EDTA) and plated out at 5×10^3 cells/well in white 96-well assay plates (Costar) dedicated to cell number (cytotoxicity) or antiviral activity assessments. Drugs were added at six 3-fold concentrations each and the assay was run in DMEM, 5% FBS, 1% pen-strep, 1% glutamine. Human interferon alpha-2b (PBL Biolabs, New Brunswick, N.J.) was included in each run as a positive control compound. Cells were processed 72 hr post drug addition when the cells are still subconfluent. Antiviral activity was measured by analyzing replicon-derived luciferase activity using the Steady-Glo Luciferase Assay System (Promega, Madison, Wis.) according to manufacturer's instruction. The number of cells in each well was determined by CytoTox-1 reagent (Promega). Compound profile was derived by calculating applicable EC50 (effective concentration inhibiting virus replication by 50%), EC90 (effective concentration inhibiting virus replication by 90%), IC50 (concentration decreasing cell viability by 50%) and SI50 (selective index: […]) values.

[4] = target: T3, A156T mutant of the HCV NS3/4A 1b protease enzyme (Hepatitis C virus genotype 1b, UniProt P26663, A1182T); assay: HCV Protease FRET Assay (IC50_APP), A156T mutant; assay type: biochemical; conditions: apparent IC50, A156T mutant; read-out: IC50_APP, HCV A156T
T3 construct: 10× stocks of NS3/4A protease enzyme from Bioenza (Mountain View, Calif.); purchased Bioenza (Mountain View, Calif.)
Description: as §1, §2, §3

Compound	IC50 [1]	IC50 [2]	IC90 [3]	IC50 [3]	IC50 [4]
C=C[C@@H]1C[C@]1(NC(=O)[C@@H]1C[C@@H](Oc2cc(-c3ccccc3)nc3cc(OC)ccc23)CN1C(=O)C(CN(C)C(=O)C#CC)NC(=O)OC(C)(C)C)C(=O)NS(=O)(=O)c1ccccc1 (stereo in doubt) [Compound I-51, tert-butyl-(S)-1-((2S,4R)-4-(7-methoxy-2-phenylquinolin-4-yloxy)-2-((1R,2S)-1-(phenylsulfonylcarbamoyl)-2-vinylcyclopropylcarbamoyl)pyrrolidin-1-yl)-3-(N-methylbut-2-ynamido)-1-oxopropan-2-ylcarbamate]	10 to 100 nM	1000 to 10000 nM	–	–	–
C=C[C@@H]1C[C@]1(NC(=O)[C@@H]1C[C@@H](Oc2cc(-c3ccccc3)nc3cc(OC)ccc23)CN1C(=O)C(CN(C)C(=O)C(=C)C(F)(F)F)NC(=O)OC(C)(C)C)C(=O)NS(=O)(=O)c1ccccc1 (stereo in doubt) [Compound I-53, tert-butyl-(S)-1-((2S,4R)-4-(7-methoxy-2-phenylquinolin-4-yloxy)-2-((1R,2S)-1-(phenylsulfonylcarbamoyl)-2-vinylcyclopropylcarbamoyl)pyrrolidin-1-yl)-3-(N-methyl-2-(trifluoromethyl)acrylamido)-1-oxopropan-2-ylcarbamate]	< 10 nM	100 to 1000 nM	> 10000 nM	100 to 1000 nM	10 to 100 nM
C=CC(=O)N(C)C[C@H](NC(=O)OC(C)(C)C)C(=O)N1C[C@H](Oc2cc(-c3ccccc3)nc3cc(OC)ccc23)C[C@H]1C(=O)N[C@]1(C(=O)NS(=O)(=O)C2CC2)C[C@H]1C=C [Compound I-52, tert-butyl-(S)-1-((2S,4R)-2-((1R,2S)-1-(cyclopropylsulfonylcarbamoyl)-2-vinylcyclopropylcarbamoyl)-4-(7-methoxy-2-phenylquinolin-4-yloxy)pyrrolidin-1-yl)-3-(N-methylacrylamido)-1-oxopropan-2-ylcarbamate]	< 10 nM	1000 to 10000 nM	< 10 nM	< 10 nM	100 to 1000 nM
C=CC(=O)NC[C@H](NC(=O)OC1CCCC1)C(=O)N1C[C@H](Oc2cc(-c3ccccc3)nc3cc(OC)ccc23)C[C@H]1C(=O)N[C@]1(C(=O)NS(=O)(=O)C2CC2)C[C@H]1C=C [Compound I-55, Cyclopentyl-(S)-3-acrylamido-1-((2S,4R)-2-((1R,2S)-1-(cyclopropylsulfonylcarbamoyl)-2-vinylcyclopropylcarbamoyl)-4-(7-methoxy-2-phenylquinolin-4-yloxy)pyrrolidin-1-yl)-1-oxopropan-2-ylcarbamate]	< 10 nM	100 to 1000 nM	100 to 1000 nM	< 10 nM	100 to 1000 nM
C=CC(=O)N[C@@H](C(=O)N1C[C@H](Oc2cc(-c3ccccc3)nc3cc(OC)ccc23)C[C@H]1C(=O)N[C@]1(C(=O)NS(=O)(=O)C2CC2)C[C@H]1C=C)C(C)C [Compound I-56, (2S,4R)-1-((R)-2-acrylamido-3-methylbutanoyl)-N-((1R,2S)-1-(cyclopropylsulfonylcarbamoyl)-2-vinylcyclopropyl)-4-(7-methoxy-2-phenylquinolin-4-yloxy)pyrrolidine-2-carboxamide]	< 10 nM	100 to 1000 nM	10 to 100 nM	< 10 nM	10 to 100 nM
C=C[C@@H]1C[C@]1(NC(=O)[C@@H]1C[C@@H](Oc2cc(-c3ccccc3)nc3cc(OC)ccc23)CN1C(=O)CNC(=O)/C=C/C)C(=O)NS(=O)(=O)C1CC1 [Compound I-57, (2S,4R)-1-(2-(E)-but-2-enamidoacetyl)-N-((1R,2S)-1-(cyclopropylsulfonylcarbamoyl)-2-vinylcyclopropyl)-4-(7-methoxy-2-phenylquinolin-4-yloxy)pyrrolidine-2-carboxamide]	100 to 1000 nM	1000 to 10000 nM	–	–	–
C=CC(=O)N(C)C[C@H](NC(=O)c1cnccn1)C(=O)N1C[C@H](Oc2cc(-c3ccccc3)nc3cc(OC)ccc23)C[C@H]1C(=O)N[C@]1(C(=O)NS(=O)(=O)C2CC2)C[C@H]1C=C [Compound I-58, (S)—N-3-(N-methyl)acrylamido-1-((2S,4R)-2-((1R,2S)-1-(cyclopropylsulfonylcarbamoyl)-2-vinylcyclopropylcarbamoyl)-4-(7-methoxy-2-phenylquinolin-4-yloxy)pyrrolidin-1-yl)-1-oxo-2-propylpyrazinecarboxamide]	10 to 100 nM	1000 to 10000 nM	1000 to 10000 nM	100 to 1000 nM	1000 to 10000 nM
C=C[C@@H]1C[C@]1(NC(=O)[C@@H]1C[C@@H](Oc2cc(-c3ccccc3)nc3cc(OC)ccc23)CN1C(=O)[C@H](Cc1ccc(F)c([N+](=O)[O-])c1)NC(=O)OC(C)(C)C)C(=O)NS(=O)(=O)c1ccccc1 [Compound I-59, tert-butyl-(S)-1-((2S,4R)-4-(7-methoxy-2-phenylquinolin-4-yloxy)-2-((1R,2S)-1-(phenylsulfonylcarbamoyl)-2-vinylcyclopropylcarbamoyl)pyrrolidin-1-yl)-3-(4-fluoro-3-nitrophenyl)-1-oxopropan-2-ylcarbamate]	< 10 nM	1000 to 10000 nM	1000 to 10000 nM	100 to 1000 nM	1000 to 10000 nM
C=CC(=O)N[C@H](C(=O)N1C[C@H](Oc2cc(-c3ccccc3)nc3cc(OC)ccc23)C[C@H]1C(=O)N[C@]1(C(=O)NS(=O)(=O)c2ccccc2)C[C@H]1C=C)C(C)C [Compound I-60, (2S,4R)-1-((S)-2-acrylamido-3-methylbutanoyl)-N-((1R,2S)-1-(phenylylsulfonylcarbamoyl)-2-vinylcyclopropyl)-4-(7-methoxy-2-phenylquinolin-4-yloxy)pyrrolidine-2-carboxamide]	10 to 100 nM	1000 to 10000 nM	100 to 1000 nM	10 to 100 nM	100 to 1000 nM
C=C[C@@H]1C[C@]1(NC(=O)[C@@H]1C[C@@H](Oc2cc(-c3ccccc3)nc3cc(OC)ccc23)CN1C(=O)CNC(=O)c1ccc([N+](=O)[O-])cc1F)C(=O)NS(=O)(=O)c1ccccc1 [Compound I-63, (2S,4R)-1-(2-fluoro-4-nitrobenzamidoacetyl)-N-((1R,2S)-1-(phenylsulfonylcarbamoyl)-2-vinylcyclopropyl)-4-(7-methoxy-2-phenylquinolin-4-yloxy)pyrrolidine-2-carboxamide]	100 to 1000 nM	1000 to 10000 nM	–	–	1000 to 10000 nM
C=CC(=O)N[C@@H](C(=O)N1C[C@H](Oc2cc(-c3ccccc3)nc3cc(OC)ccc23)C[C@H]1C(=O)N[C@]1(C(=O)NS(=O)(=O)C2CC2)C[C@H]1C=C)C(C)(C)C [Compound I-65, (2S,4R)-1-((R)-2-acrylamido-3,3-dimethylbutanoyl)-N-((1R,2S)-1-(cyclopropylsulfonylcarbamoyl)-2-vinylcyclopropyl)-4-(7-methoxy-2-phenylquinolin-4-yloxy)pyrrolidine-2-carboxamide]	100 to 1000 nM	1000 to 10000 nM	–	–	1000 to 10000 nM
C=C[C@@H]1C[C@]1(NC(=O)[C@@H]1C[C@@H](Oc2cc(-c3ccccc3)nc3cc(OC)ccc23)CN1C(=O)[C@H](CCC(=O)N[C@H]1COC1=O)NC(=O)OC(C)(C)C)C(=O)NS(=O)(=O)C1CC1 [Compound I-69, t-butyl-(2S)-1-((2S,4R)-2-((1R,2S)-1-(cyclopropylsulfonylcarbamoyl)-2-vinylcyclopropylcarbamoyl)-4-(7-methoxy-2-phenylquinolin-4-yloxy)pyrrolidin-1-yl)-5-((3S)-2-oxooxetan-3-ylamino)-1,5-dioxopentan-2-ylcarbamate]	< 10 nM	100 to 1000 nM	–	–	100 to 1000 nM
